Where two headings read alike, the source gives them in different places.
Legend:
3MI metabolism = 3MI metabolism assay: production of HMOI and 3MOI in primary pig hepatocytes after inducer treatment; format: cell-based; details: for 3MI metabolism: CITCO 1.0 μM
Experimental: (§1) Each data point represents results obtained from 3 separate experiments run in triplicate.
(§2) Hepatocytes were prepared by a modification of a collagenase perfusion method described previously (Sinclair et al., 2005). Briefly, one hepatic lobe was immediately catheterized by selecting the largest vessel at the cut end. Blood was then flushed from the liver by perfusion with 25 mL/min of medium containing 10 mM hydroxyethyl piperazine ethane (HEPES), 1 mM EGTA and HBSS (pH 7.4) delivered at 37° C. The lobe was then perfused for 5 minutes with the same medium without EGTA and then with William's E Media (pH 7.4) containing 10 mM HEPES and 0.7 mg/mL collagenase type 1 for 10 to 25 minutes until the hepatocytes appeared to be fully dissociated.
(§3) All remaining experimental procedures were carried out under sterile conditions. The lobe was gently minced with a scalpel to disassociate cells in attachment medium containing 10 mM HEPES, 10% (v/v) fetal bovine serum, 1% (v/v) penicillin-streptomycin and 50 Units/L insulin in William's E media (pH 7.4), at 4° C. Cells were filtered through gauze and centrifuged at 15×g for 3 minutes. The cell pellet was washed in attachment media and cell viability was determined by trypan blue exclusion. […] Hepatocytes were then plated on Primaria™ 60 mm tissue culture dishes (VWR International Ltd., Mississauga, ON) at a density of 2.25×10^6 cells in 3.0 mL attachment media, and kept in a incubator at 37° C. supplied with 95% air and 5% CO2. After 4 hours to allow for attachment of the cells, the medium was replaced with serum-free medium that contained 10 mM HEPES, 10 mM pyruvate, 0.35 mM proline, 1% (v/v) penicillin-streptomycin and 50 Units/L insulin in William's E media (pH 7.4) with treatments. For inducer experiments, hepatocytes were treated for 19 hours prior to the determination of P450 activities and 3MI metabolism.
To measure 3MI metabolism in primary cultured hepatocytes, cells were incubated with 500 μM 3MI for 6 hours, after which an equal volume of acetonitrile was added to stop the reaction. The production of metabolites was then determined by HPLC analysis as previously described (Terner et al., in press). Formation of metabolites was determined by interpolation of standard curves made from authentic standards HMOI and 3MOI run in duplicate.

CYP2E1 = CYP2E1 activity (PNP hydroxylase assay) in primary pig hepatocytes after inducer treatment; details: isoproterenol 500 μM, hormones and rifampicin 10 μM, CITCO 1.0 μM
Experimental: as §1, §2, §3
(§4) To determine the rate of p-nitrophenol (PNP) hydroxylase activity and coumarin 7-hydroxylase (COH) activity, hepatocytes were incubated with 500 μM PNP or 100 μM coumarin according to the procedures previously described (Terner et al, in press). Assays were validated to be linear with time and proportional to number of cells. Production of metabolites was determined in duplicate by interpolation of standard curves made from authentic standards p-nitrocatechol and 7-hydroxycoumarin.

CYP2A6 = CYP2A6 activity (coumarin 7-hydroxylase, COH assay) in primary pig hepatocytes after inducer treatment; details: for CYP2A6 activity: isoproterenol 500 μM, CITCO 1.0 μM
Experimental: as §1, §2, §3, §4

pgCAR [1] = experiment: Dual luciferase reporter assay in HepG2 cells transiently transfected with pgCAR; format: cell-based, pig; details: for reporter gene expression (fold-change relative to DMSO vehicle): pgCAR, CYP2B6 response element firefly luciferase, hormones at 10 μM
Experimental: Dual Luciferase Reporter Assay: Pig, human ? mouse ? receptors were tested in a transient transfection assay against a panel of hormones and xenobiotics. Hormones and TCPOBOP were tested at 10 μM with the exception of CITCO at 1 μM. The effects of ligands are expressed as fold-change relative to vehicle (dimethylsulfoxide 1:2000) control for each receptor.
The dual luciferase reporter assay (Promega) was used as a screening tool to identify ligands (hormone and xenobiotic compounds) that regulate the nuclear receptor CAR. The dual luciferase assay consists of 3 plasmids. A pgCAR or hCAR or mCAR expression plasmid containing the full length wild type isoform is used together with a reporter construct, consisting of the CAR response gene promoter element from CYP2B6 regulating the expression of the firefly luciferase gene. […] The Promega Dual-Luciferase Reporter Assay System (Cat#E11960) was used to determine the hormones and xenobiotics that modulate the CAR responsive genes by measuring the amount light produced by the firefly luciferase gene construct.
The dual luciferase assay method uses HepG2 cells (that express RXR) plated at 50% confluence onto 96 well cell culture plates. The cells are transiently transfected after 1 day with pgCAR expression plasmid, reporter plasmid (containing the CAR response element) and the internal control plasmid, which are pooled treatments to ensure all samples receive the same amount of plasmids. On day two, control or ligand supplemented media are added to cells (ligands from FIG. 4 at 10 ug/ml in DMSO) for a total of n=15 for each ligand. On day four, the media is removed and cells are washed with PBS to remove detached cells and remaining media. The cell monolayer is then treated with Passive lysis buffer and the cell lysate is then transferred to a test tube for analysis. Luminometer readings are made on a Berthold Detection systems Sirius single tube luminometer with dual injectors. The test tube is loaded into the measurement chamber and the LARII luciferase reagent is injected into the cell lysate and a 10 second firefly luciferase relative light unit (RLU) measurement is recorded. The Stop & Glo reagent is then injected into the same tube and the Renella luciferase RLU is measured. The ratio of reporter to control luminescence is used to normalize transfection efficiencies between plates; the normalized values are then statistically analyzed by t-tests to determine how efficiently CAR activates the firefly luciferase reporter gene in response to ligand treatment.

UGT2B = details: boar hepatocytes, ligand 8 or 10 hours, vs DMSO
Text: (§5) Boar hepatocytes treated with ligands for 8-10 hrs prior to RNA isolation and real time PCR analysis. B-actin was used as the housekeeping gene and DMSO (no hormone treatment) was used as the calibrator. For CYP2A6, CYP2E1, SULT1A1 and UGT2B the primer inefficiencies should not affect the resultant fold changes in this experiment since all hepatocyte treatments come from a single boar and analysis is compared to the no hormone DMSO control. This analysis should be valid since the calibrator is from the same pool of cells.
(§6) Primary boar hepatocytes were treated with seven different CAR ligands identified in objective 2 and 5, with DMSO used as the vehicle control. Primary cells were plated on 60 mm dishes and treated with ligand. The treatments were incubated for 8 or 10 hours and the RNA was extracted from cells in each treatment. Real Time PCR primers were designed for seven genes of interest CYP2A6, CYP2E1, 3β-HSD, 3α-HSD, SULT2A1, SULT1A1, UGT2B, CYP2B6 and pgCAR, with B-actin used as the housekeeping gene for ΔΔCT analysis.

3β-HSD = details: boar hepatocytes, ligand 8 or 10 hours, vs DMSO
Text: as §5, §6

SULT2A1 [2] = details: boar hepatocytes, ligand 8 or 10 hours, vs DMSO
Text: as §5, §6

pgCAR [3] = experiment: Dual luciferase reporter assay in primary boar hepatocytes transfected with pgCAR; format: cell-based, pig; details: primary boar hepatocytes with exogenous pgCAR expression plasmid
Experimental: FIG. 11. Dose response analysis of CITCO ligand treatment in primary boar hepatocytes. Unlike HepG2 cells, primary hepatocytes have very low basal luciferase expression allowing for the detection of significant fold changes above no hormone control at lower doses.
FIG. 12. Dose response analysis of Phenytoin ligand treatment in primary boar hepatocytes.
FIG. 13. Dual luciferase assay of selected ligand in boar hepatocytes. Selected activators and repressors of pgCAR in HepG2 cells were tested in boar hepatocytes. […] Only reporter gene activations and not repressions are detectable in this cell model.
Transfection experiments using the HepG2 cell line identified compounds that were able to alter pgCAR gene regulation. Experiments performed on primary mouse and human hepatocytes indicate that gene regulation has additional levels of complexity, and CAR is not constitutively active in vivo. This experiment uses a similar methodology as objective 2 except primary boar hepatocytes were used as the cell line. Hepatocytes were transfected with a reporter construct containing the CAR responsive element, an internal control Renilla luciferase construct, and pgCAR or an empty vector as control. Control experiments without pgCAR were conducted to determine if endogenous pgCAR in the hepatocytes could activate the reporter construct. […] The cascade of events leading to gene activation remains unclear.

SULT2A1 [4] = experiment: SULT2A1 activity in primary porcine Leydig cells after treatment with nuclear receptor ligands ([3H]DHEA to DHEAS conversion); format: cell-based, pig; details: primary Leydig cells of mature Yorkshire boars, 24 hours; CITCO 1 μM, TCPOBOP 250 nM, phenobarbital 2 mM, phenytoin 50 μM, rifampicin 10 μM, PCN 10 μM, dexamethasone 0.1 μM, lithocolic acid 100 μM; vs control
Experimental: FIG. 1: Effect of nuclear receptor ligands on SULT2A1 activity in porcine Leydig cells. Primary porcine Leydig cells were isolated from mature Yorkshire boars and the SULT2A1 activity was determined. Leydig cells were cultured in the presence of; CITCO (1 μM), TCPOBOP (250 nM), Phenobarbital (2 mM), Phenytoin (50 μM), Rifampicin (10 μM), PCN (10 μM), Dexamethasone (0.1 μM), Cholic Acid (100 μM), and Lithocolic Acid (100 μM) for 24 hours. Treatments are grouped according to the nuclear receptor affected: constitutive androstane receptor (CAR), pregnane X receptor (PXR), glucocorticoid receptor (GR) and farnesoid X receptor (FXR). Values are presented as means±SE of 3 independent experiments with significant differences indicated (*P<0.05).
Mature Yorkshire boars of 175±6 days obtained from the Arkell Swine Research Station at the University of Guelph, Guelph, ON were used for the isolation of Leydig cells. After slaughter, the testes were immediately removed and transported to the laboratory within five minutes. Testicular tissue was sliced into pieces of 1 cm^2×2-3 mm thickness and 100 g of tissue was incubated for 20 minutes in a shaking water bath at 37° C. with 1 mg/ml collagenase (type 1A), 50 μg/ml DNase and 50 μg/ml trypsin inhibitor in 250 ml of TC 199 Media containing 1 g/L bovine serum albumin and 0.1 g/L L-glutamine. Preparations of purified Leydig cells were obtained by layering the collagenase—dispersed testicular cells onto discontinuous Percoll gradients supplemented with HBSS. The preparations were then centrifuged at 1500×g for 15 minutes at 4° C. and the cells present at the 40-60% interface were collected as outlined previously (Raeside & Renaud 1983). Cell viability was determined by trypan blue exclusion. The typical viability of Leydig cells after this procedure was greater than 90%.
To further understand the molecular mechanisms that control SULT2A1 gene transcription, various nuclear receptor ligands were evaluated for their ability to induce SULT2A1 activity in Leydig cells. Aliquots of re-suspended Leydig cells (1×10^6 cells/ml) in TC 199 Media mixture were plated in 24 well plates. The Leydig cells were then treated with various nuclear receptor ligands as outlined in the figure legends in less than 0.5% DMSO vehicle and incubated at 37° C. in 95% air and 5% CO2 for 24 hours.
After the 24 h incubation period, the media was aspirated and approximately 10,000 cpm of [^3H] […] The cells were incubated for 4 h and the media was removed and immediately extracted by Sep-Pak C18 solid-phase chromatography, as described above. Sulfotransferase activity was assayed by measuring the conversion of [^3H] […] DHEAS (conjugate) fractions by liquid scintillation counting. […]

[5] = 3-week old male pig hepatocytes, isoproterenol 500 μM, hormones and rifampicin 10 μM, given as increase, FIG. 2 values as percent of control
[6] = adult male hepatocytes, isoproterenol 500 μM, estrone 10 μM, given as increase, FIG. 2 values as percent of control
[7] = 3-week old male pig hepatocytes, given as increase, FIG. 2 values as percent of control
[8] = 3-week old male pig hepatocytes, hormones 10 μM, given as increase, FIG. 2 values as percent of control
[9] = adult male hepatocytes, hormones and rifampicin 10 μM

CC(C)NCC(O)c1ccc(O)c(O)c1 (stereo not shown) [isoproterenol]
production of 3MOI (3MI metabolism; [5]): unaffected | production of the 3MI metabolite HMOI (3MI metabolism; [5]): 150±13% | 3MOI production (3MI metabolism; adult male hepatocytes, isoproterenol 500 μM, estrone 10 μM): did not alter | HMOI production (3MI metabolism; [6]): 139±12%

C[C@@]12CCC[C@H]1[C@@H]1CC[C@H]3C[C@@H](O)CC[C@]3(C)[C@H]1CC2 [androstanol]
CYP2E1 activity (CYP2E1; [7]): did not alter | CYP2E1 activity (CYP2E1; adult male hepatocytes): did not alter | production of 3MOI (3MI metabolism; [5]): did not affect | production of the 3MI metabolite HMOI (3MI metabolism; [5]): did not affect | CYP2A6 activity (CYP2A6; [8]): did not alter | CYP2A6 activity (CYP2A6; [9]): did not alter

C[C@]12CC[C@@H](O)C[C@@H]1CC[C@@H]1[C@@H]2CC[C@]2(C)C=CC[C@@H]12 [androstenol]
production of 3MOI (3MI metabolism; [5]): did not affect | production of the 3MI metabolite HMOI (3MI metabolism; [5]): did not affect

C[C@@]12C=CC[C@H]1[C@@H]1CC=C3C[C@@H](O)CC[C@]3(C)[C@H]1CC2 [5,16-androstadien-3β-ol]
reporter gene expression (fold-change relative to DMSO vehicle) (pgCAR [1]): significant repressions

C[C@]12CC[C@@H]3c4ccc(O)cc4CC[C@H]3[C@@H]1CCC2=O [estrone]
HMOI production (3MI metabolism; [6]): 142±12%

C[C@]12CCC(=O)C[C@@H]1CC[C@@H]1[C@@H]2CC[C@]2(C)[C@@H](O)CC[C@@H]12 [5α-DHT, 5α dihydrotestosterone]
UGT2B gene expression (UGT2B): significantly activated | 3β-HSD gene expression (3β-HSD): significantly activated | SULT2A1 gene expression (SULT2A1 [2]): significantly activated

O=C1NC(=O)C(c2ccccc2)(c2ccccc2)N1 [phenytoin]
activation of the luciferase reporter construct (pgCAR [3]): activated the reporter construct | SULT2A1 activity (SULT2A1 [4]): significant increase

CC(=O)[C@H]1[C@H](C#N)C[C@H]2[C@@H]3CC=C4C[C@@H](O)CC[C@]4(C)[C@H]3CC[C@@]21C [PCN, Pregnenolone 16α-carbonitrile]
SULT2A1 activity (SULT2A1 [4]): only rifampicin resulted in a significant increase

C[C@]12CC[C@H]3[C@@H](CCC4=CC(=O)CC[C@@]43C)[C@@H]1CC[C@@H]2O [testosterone]
CYP2E1 activity (CYP2E1; [7]): did not alter | CYP2E1 activity (CYP2E1; adult male hepatocytes): did not alter | production of 3MOI (3MI metabolism): did not affect | production of the 3MI metabolite HMOI (3MI metabolism): did not affect | CYP2A6 activity (CYP2A6; [8]): did not alter | CYP2A6 activity (CYP2A6; [9]): did not alter

Clc1cnc(Oc2ccc(Oc3ncc(Cl)cc3Cl)cc2)c(Cl)c1 [TCBOPOP, 1,4-bis-[2-(3,5-dichloropyridyl-oxy)]benzene; 3,3′5,5′-tetrachloro-1,4-bis(pyridyl-oxy)benzene]
SULT2A1 activity (SULT2A1 [4]): did not affect

C[C@]12CC[C@H](O)C[C@@H]1CC[C@@H]1[C@@H]2CC[C@]2(C)C=CC[C@@H]12 [5α-androsten-3β-ol]
reporter gene expression (fold-change relative to DMSO vehicle) (pgCAR [1]): significant repressions

Clc1ccc(-c2nc3sccn3c2C=NOCc2ccc(Cl)c(Cl)c2)cc1 [CITCO, 6-(4-chlorophenyl)imidazo[2,1-b][1,3]thiazole-5-carbaldehyde O-(3,4-dichlorobenzyl)oxime]
dose at which CITCO significantly activates the pgCAR receptor (pgCAR [1]; dose response 0.01-10.0): ≥ 0.5 µM | reporter gene expression (fold-change relative to DMSO vehicle) (pgCAR [1]): significant activation | activation of the luciferase reporter construct (pgCAR [3]): activated the reporter construct | 3MI metabolism (3MI metabolism; 3-week old male hepatocytes): did not increase CYP2E1 or CYP2A6 activity, or affect 3MI metabolism | 3MI metabolism (3MI metabolism; adult male hepatocytes, rifampicin 10 μM): did not increase CYP2E1 or CYP2A6 activity, or affect 3MI metabolism | SULT2A1 activity (SULT2A1 [4]): did not affect

CO[C@H]1/C=C/O[C@@]2(C)Oc3c(C)c(O)c4c(O)c(c(/C=N/N5CCN(C)CC5)c(O)c4c3C2=O)NC(=O)/C(C)=C\C=C\[C@H](C)[C@H](O)[C@@H](C)[C@@H](O)[C@@H](C)[C@H](OC(C)=O)[C@@H]1C [Rifampicin]
production of 3MOI (3MI metabolism; [5]): 128±10% | production of the 3MI metabolite HMOI (3MI metabolism; [5]): 151±14% | decrease in CYP2A6 activity (CYP2A6; male, pig, hepatocytes, 19 h, 10 μM, pH 7.4): 43±7%
